This note sets out measurements from publication PMC6030096, “Synergy of Physico-chemical and Biological Experiments for Developing a Cyclooxygenase-2 Inhibitor” (Scientific Reports, 2018).

The test has as its target T1, COX-2 (Homo sapiens, UniProt P35354).
T1 sequence (P35354 18-604): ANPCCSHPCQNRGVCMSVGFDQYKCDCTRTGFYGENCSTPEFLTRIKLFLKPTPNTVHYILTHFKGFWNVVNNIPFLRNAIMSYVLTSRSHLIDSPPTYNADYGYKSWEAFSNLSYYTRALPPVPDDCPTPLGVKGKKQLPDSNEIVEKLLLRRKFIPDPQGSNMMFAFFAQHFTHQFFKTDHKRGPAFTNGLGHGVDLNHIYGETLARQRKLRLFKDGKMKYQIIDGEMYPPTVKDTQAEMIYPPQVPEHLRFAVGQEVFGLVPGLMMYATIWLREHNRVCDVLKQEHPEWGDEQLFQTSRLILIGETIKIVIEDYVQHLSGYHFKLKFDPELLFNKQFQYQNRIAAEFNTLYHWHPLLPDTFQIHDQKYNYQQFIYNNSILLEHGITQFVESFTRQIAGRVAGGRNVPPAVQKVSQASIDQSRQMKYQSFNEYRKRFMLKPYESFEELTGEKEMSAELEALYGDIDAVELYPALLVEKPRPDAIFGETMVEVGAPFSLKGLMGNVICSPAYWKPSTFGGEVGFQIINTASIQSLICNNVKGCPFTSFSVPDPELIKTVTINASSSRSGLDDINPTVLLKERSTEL
Nature of the test: COX-2 enzyme immunoassay (Cayman inhibitor screening kit). In kind it is biochemical. Also on record: purchased Cayman Chemical Co. 560131. As to conditions: for IC50: enzyme immunoassay, average of three experiments; for Selectivity index: SI = IC50 (COX-1)/ IC50 (COX-2). The method, then: Principally, the catalytic activity of COX-1/2 is slowed down in the presence of its inhibitor and quantitatively, it is inversely proportional to the amount of prostaglandin produced in the presence of inhibitor.
The enzyme inhibition screening assay kits for COX-1/2 and 5-LOX with item no. […] The 100% initial activity tubes for the two enzymes contained 10 µL heme and 10 µL of the enzyme in 160 µL reaction buffer. Then 10 µL inhibitor (compound of above mentioned concentrations) was added to the inhibitor tubes for the two enzymes and 10 µL of vehicle (DMSO) was added to 100% initial activity and background tubes. All the tubes were incubated for 10 min at 37 °C and the reaction was started by adding 10 µL arachidonic acid to all the reaction tubes. After incubation of the reaction vials for 2 min at 37 °C, the enzyme catalysis was stopped by adding 30 µL saturated stannous chloride solution to each test tube and solutions were kept at 0–4 °C. For EIA (enzyme immunoassay) procedure: the EIA buffers and assay specific reagents were prepared as written in the manual. In the COX dilutions, two test tubes labelled as BC1 and BC2 were taken to prepare background samples. Each tube contained 990 µL of EIA buffer and 10 µL of background COX-1 for BC1 and 10 µL of background COX-2 for BC2. The samples for 100% initial activity were diluted in three vials labelled IA1, IA2 and IA3 for each enzyme. IA1 contained 990 µL EIA buffer and 10 µL enzyme, IA2 has 950 µL buffer and 50 µL solution of IA1 (1:2000 dilution of original sample) and IA3 carried 500 µL of buffer and 500 µL of IA2 solution (1:4000 dilution of original sample). Each solution was thoroughly mixed. Solutions of IA2 and IA3 were used for the assaying. […] C2 contained 950 µL buffer and 50 µL solution of C1 (1:2000 dilution of original sample) and vial C3 was charged with 500 µL buffer and 500 µL solution from C2 (1: 4000 dilution of original sample). Only C2 and C3 were run in the assay. After all the reaction dilutions, these were then subjected to 96 wells plate. The wells were divided as: 2 blank wells, 2 NSB wells (non-specific binding), 3 B0 wells (maximum binding), one TA well (total activity), 16 wells for standards (S1–S8 in repeat), 2 BC1 and 2 BC2 wells. Compounds (inhibitors) were put in all the other wells. The sequence for the addition of reagents onto the plate was as per the protocol of the assay kit. […] For developing the plate; it was emptied and washed with wash buffer 5 times followed by the addition of 200 µL Ellman’s reagent to each well. 5 µL tracer was added to the TA well. Then the plate was covered and left for 60 mins for development in dark. After the respective time period the cover was removed and the plate was read at 420 nm. %B/Bo (i.e. % sample or maximum bound) value for standards S1-S8 and each sample was determined from the absorbance values obtained according to the calculation given in the protocol. The amount of prostaglandins formed during the enzymatic reaction was calculated from the values of %B/Bo for all the compounds at all concentrations with the help of the standard curve (plotted between %B/Bo of standards and raw data given in the protocol). Then the prostaglandin formed at each concentration of all the compounds and percentage inhibition values were calculated. The graph between percent inhibition of the enzyme and corresponding concentration of the compound provided IC50 values for the compounds.

For orientation: IC50 means the concentration needed to halve the response being measured.

SMILES strings stand for the structures.

Consider `O=C1Nc2ccccc2C1=Cc1cn(C[C@H](O)Cn2c3ccccc3c(=O)c3ccccc32)c2ccccc12` [(S)-3c], for which the IC50 is 800 ± 75 nM.

As to `O=C1NC(=O)C(=Cc2cn(CCCn3c4ccccc4c(=O)c4ccccc43)c3ccccc23)C(=O)N1` [Compound 4a], the Selectivity index came to 300 and half-maximal inhibition (IC50) required 100 ± 60 nM.

As to `O=C1Nc2ccccc2C1=Cc1cn(CCCn2c3ccccc3c(=O)c3ccccc32)c2ccccc12` [Compound 4c], the Selectivity index came out at 13.33 and the IC50 is 300 ± 15 nM.
